Values quoted from earlier work in US20230382903A1, “SMALL MOLECULE MODULATORS OF GP130 SIGNALING PATHWAYS, TOPICAL FORMULATIONS AND METHOD OF USE THEREOF” (CarthroniX, Inc., priority 2020, published 2023).

How the values were obtained:
cartilage degeneration = conditions: rat model of OA
gp130 = target: T1, gp130 (Homo sapiens, UniProt P40189)
T1 sequence (P40189 23-918): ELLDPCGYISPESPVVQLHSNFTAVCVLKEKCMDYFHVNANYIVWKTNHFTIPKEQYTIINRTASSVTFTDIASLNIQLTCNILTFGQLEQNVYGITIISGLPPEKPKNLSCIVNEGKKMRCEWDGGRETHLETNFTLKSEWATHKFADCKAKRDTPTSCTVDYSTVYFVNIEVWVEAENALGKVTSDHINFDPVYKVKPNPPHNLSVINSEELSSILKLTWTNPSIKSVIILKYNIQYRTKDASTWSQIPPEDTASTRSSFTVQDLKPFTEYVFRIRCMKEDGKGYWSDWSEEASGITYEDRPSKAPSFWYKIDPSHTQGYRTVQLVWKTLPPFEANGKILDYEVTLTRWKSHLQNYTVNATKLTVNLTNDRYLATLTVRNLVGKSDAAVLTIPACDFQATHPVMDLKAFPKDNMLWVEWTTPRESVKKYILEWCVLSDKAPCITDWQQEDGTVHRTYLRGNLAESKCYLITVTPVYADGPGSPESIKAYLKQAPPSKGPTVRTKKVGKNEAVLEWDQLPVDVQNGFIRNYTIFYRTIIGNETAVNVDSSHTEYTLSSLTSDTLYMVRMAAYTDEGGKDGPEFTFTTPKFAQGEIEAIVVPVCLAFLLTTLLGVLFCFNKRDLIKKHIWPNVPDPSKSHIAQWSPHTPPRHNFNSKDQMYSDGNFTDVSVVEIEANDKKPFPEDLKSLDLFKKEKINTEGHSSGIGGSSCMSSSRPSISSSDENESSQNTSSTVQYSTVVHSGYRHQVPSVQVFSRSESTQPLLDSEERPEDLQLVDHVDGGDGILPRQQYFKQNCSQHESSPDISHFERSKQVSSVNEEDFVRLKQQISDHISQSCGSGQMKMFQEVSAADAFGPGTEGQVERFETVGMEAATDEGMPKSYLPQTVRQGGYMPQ

Brc1ccc(Nc2nc(-c3ccccc3)cs2)cc1 [RCGD 423]
prevention of cartilage degeneration (cartilage degeneration): remarkable ability to prevent cartilage degeneration | interaction with gp130 (gp130; in vitro): interacts with the extracellular region of gp130 | formation of gp130 homodimers (gp130; ligand-independent): promotes the formation of active, ligand-independent gp130 homodimers
